In patent US20250179057A1, “MEK IMMUNE ONCOLOGY INHIBITORS AND THERAPEUTIC USES THEREOF” (Immuneering Corporation, priority 2022, published 2025):

Legend:
hERG = hERG (Homo sapiens, UniProt Q12809); assay: in vitro; conditions: read-out: IC50 (μM), hERG ion channel block; Example 46; 5 min exposure per concentration
Method: Materials and Methods: CHO cells (transformed with adenovirus 5 DNA; Stably transfected with full length hERG cDNA) were cultured in Ham's F-12 supplemented with 10% fetal bovine serum, 100 U/mL penicillin G sodium, 100 μg/mL streptomycin sulfate and 400 μg/mL Zeocin. Before testing, cells in culture dishes were rinsed with Hank's Balanced Salt Solution, detached with accutase.
HEPES-buffered intracellular solution (Charles River proprietary) for whole cell recordings was loaded into the intracellular compartment of the SP384PE. Extracellular buffer (HB-PS) and Cell suspension (in HB-PS) were pipetted into the extracellular compartment of the SP384PE chip. After establishment of a whole-cell configuration, membrane currents were recorded using patch clamp amplifier in the SP384PE system.
Test article (TA) concentrations (eight (8) concentrations of each test article were evaluated) were applied to naïve cells (n=4, where n=replicates/concentration). Each application consisted of addition of 40 μL of 2× concentrated test article solution to the total 80 μL of final volume of the extracellular well of the SP384PE chip. Duration of exposure to each compound concentration was five (5) minutes.
hERG current was measured using stimulus voltage patterns with fixed amplitudes: activation pre-pulse (TP1) to +40 mV for 2 s and test pulse (TP2) to −40 mV for 2 s from a holding potential of −80 mV. hERG current was measured as the outward peak current at TP2 (tail current). The stimulation was repeated with 0.1 Hz frequency during 2 min as baseline and 5 min after TA application.
Data acquisition and analyses were performed using the SP384PE system operation software. The decrease in current amplitude after TA application was used to calculate the percent block relative to control.
Tonic Block effect was calculated as:
[formula] • where ITP2, baseline and ITP2, TA were the outward peak K^+ currents elicited by the TP2 before application and 5 min after application of a test article, respectively.
The data were corrected for run-down:
[formula] • where % VC and % PC were the mean values of the current block with the vehicle and positive controls, respectively.
Concentration-response data were fitted to an equation of the following form:
[formula] • where [Test] was the concentration of test article, IC50 was the concentration of the test article producing half-maximal block, N was the Hill coefficient, % VC was the mean current block at the vehicle control and % Block was the percentage of ion channel current inhibited at each concentration of a test article. Nonlinear least squares fits were solved with the XLfit add-in for Excel (Microsoft, Redmond, WA).
In this study, hERG Ion channel block of IC50 values were determined. […] In brief, CHO cells were cultured in Ham's F-12 supplemented with 10% fetal bovine serum, 100 U/mL penicillin G sodium, 100 μg/mL streptomycin sulfate and 400 μg/mL Zeocin. Before testing, cells in culture dishes were rinsed with Hank's Balanced Salt Solution, detached with accutase. […] Test article (TA) concentrations were applied to naïve cells (n=4, where n=replicates/concentration). Each application consisted of addition of 40 μL of 2× concentrated test article solution to the total 80 μL of final volume of the extracellular well of the SP384PE chip. Duration of exposure to each compound concentration was five (5) minutes. hERG current was measured using stimulus voltage patterns with fixed amplitudes: activation pre-pulse (TP1) to +40 mV for 2 s and test pulse (TP2) to −40 mV for 2 s from a holding potential of −80 mV. hERG current was measured as the outward peak current at TP2 (tail current). The stimulation was repeated with 0.1 Hz frequency during 2 min as baseline and 5 min after TA application. Data acquisition and analyses were performed using the SP384PE system operation software.

CYP2C19 = CYP2C19 (Homo sapiens, UniProt P33261); assay: CYP450 panel inhibition in human liver microsomes, 2C19 (mephenytoin); conditions: 10 μM, substrate mephenytoin
CYP2D6 = CYP2D6 (Homo sapiens, UniProt P10635); assay: CYP450 panel inhibition in human liver microsomes, 2D6 (dextromethorphan); conditions: 10 μM, substrate dextromethorphan
CYP2B6 = molecular target: T1, CYP2B6 (Homo sapiens, UniProt P20813); assay: CYP450 panel inhibition in human liver microsomes, 2B6 (bupropion); conditions: 10 μM, substrate bupropion
T1 sequence (P20813 1-491): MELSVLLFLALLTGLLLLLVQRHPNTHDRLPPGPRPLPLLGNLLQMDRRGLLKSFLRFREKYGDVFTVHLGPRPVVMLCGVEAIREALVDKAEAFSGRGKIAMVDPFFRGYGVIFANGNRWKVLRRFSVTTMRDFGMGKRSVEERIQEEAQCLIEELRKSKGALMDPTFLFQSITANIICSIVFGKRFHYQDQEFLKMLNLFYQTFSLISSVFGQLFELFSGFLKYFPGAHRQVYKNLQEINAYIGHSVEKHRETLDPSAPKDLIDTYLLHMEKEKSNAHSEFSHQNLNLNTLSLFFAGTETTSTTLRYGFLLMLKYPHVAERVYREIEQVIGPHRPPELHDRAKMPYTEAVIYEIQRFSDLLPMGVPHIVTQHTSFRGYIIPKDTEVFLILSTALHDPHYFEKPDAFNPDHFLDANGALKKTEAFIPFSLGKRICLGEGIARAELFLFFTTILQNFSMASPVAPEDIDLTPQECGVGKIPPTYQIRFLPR

PAMPA (pH 7.4) = type: in vitro ADME; conditions: pH = 7.4
Method: Each stock solution was diluted to 50 M in pH 7.4 Prisma HT buffer (pION) and 200 μl was added to each well of the donor plate in triplicate. The polyvinylidene fluoride (PVDF, 0.45 μm) filter membrane on the acceptor plate was coated with 5 μl gastrointestinal tract lipid formulation (GIT-0, pION) and to each well of the acceptor plate, 200 μl of acceptor sink buffer (pION) was added. The acceptor filter plate was then carefully placed on top of the donor plate to form a sandwich. The sandwich was incubated at 25° C. for 4 h without stirring. UV-vis spectra of the solutions in the blank, reference, acceptor and donor plates were measured using a microplate reader (Tecan Infinite 200PRO M Nano Plus). Permeability values were calculated using the PAMPA explorer software v.

Chain of CYP2D6 (P10635 whole entry): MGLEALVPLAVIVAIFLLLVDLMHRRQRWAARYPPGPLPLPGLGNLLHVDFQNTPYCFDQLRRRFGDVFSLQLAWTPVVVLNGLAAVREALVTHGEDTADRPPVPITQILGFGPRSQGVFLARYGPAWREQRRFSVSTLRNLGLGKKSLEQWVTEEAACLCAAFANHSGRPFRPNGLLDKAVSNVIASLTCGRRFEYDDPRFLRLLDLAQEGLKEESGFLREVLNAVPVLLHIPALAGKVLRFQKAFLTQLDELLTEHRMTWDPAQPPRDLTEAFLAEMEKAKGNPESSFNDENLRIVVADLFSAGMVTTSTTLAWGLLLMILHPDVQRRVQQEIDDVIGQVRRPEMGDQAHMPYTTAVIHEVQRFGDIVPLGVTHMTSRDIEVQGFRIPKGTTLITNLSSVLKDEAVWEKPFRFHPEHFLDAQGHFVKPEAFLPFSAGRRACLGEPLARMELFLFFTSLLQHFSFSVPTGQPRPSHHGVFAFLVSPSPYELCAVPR
Chain of hERG (Q12809 whole entry): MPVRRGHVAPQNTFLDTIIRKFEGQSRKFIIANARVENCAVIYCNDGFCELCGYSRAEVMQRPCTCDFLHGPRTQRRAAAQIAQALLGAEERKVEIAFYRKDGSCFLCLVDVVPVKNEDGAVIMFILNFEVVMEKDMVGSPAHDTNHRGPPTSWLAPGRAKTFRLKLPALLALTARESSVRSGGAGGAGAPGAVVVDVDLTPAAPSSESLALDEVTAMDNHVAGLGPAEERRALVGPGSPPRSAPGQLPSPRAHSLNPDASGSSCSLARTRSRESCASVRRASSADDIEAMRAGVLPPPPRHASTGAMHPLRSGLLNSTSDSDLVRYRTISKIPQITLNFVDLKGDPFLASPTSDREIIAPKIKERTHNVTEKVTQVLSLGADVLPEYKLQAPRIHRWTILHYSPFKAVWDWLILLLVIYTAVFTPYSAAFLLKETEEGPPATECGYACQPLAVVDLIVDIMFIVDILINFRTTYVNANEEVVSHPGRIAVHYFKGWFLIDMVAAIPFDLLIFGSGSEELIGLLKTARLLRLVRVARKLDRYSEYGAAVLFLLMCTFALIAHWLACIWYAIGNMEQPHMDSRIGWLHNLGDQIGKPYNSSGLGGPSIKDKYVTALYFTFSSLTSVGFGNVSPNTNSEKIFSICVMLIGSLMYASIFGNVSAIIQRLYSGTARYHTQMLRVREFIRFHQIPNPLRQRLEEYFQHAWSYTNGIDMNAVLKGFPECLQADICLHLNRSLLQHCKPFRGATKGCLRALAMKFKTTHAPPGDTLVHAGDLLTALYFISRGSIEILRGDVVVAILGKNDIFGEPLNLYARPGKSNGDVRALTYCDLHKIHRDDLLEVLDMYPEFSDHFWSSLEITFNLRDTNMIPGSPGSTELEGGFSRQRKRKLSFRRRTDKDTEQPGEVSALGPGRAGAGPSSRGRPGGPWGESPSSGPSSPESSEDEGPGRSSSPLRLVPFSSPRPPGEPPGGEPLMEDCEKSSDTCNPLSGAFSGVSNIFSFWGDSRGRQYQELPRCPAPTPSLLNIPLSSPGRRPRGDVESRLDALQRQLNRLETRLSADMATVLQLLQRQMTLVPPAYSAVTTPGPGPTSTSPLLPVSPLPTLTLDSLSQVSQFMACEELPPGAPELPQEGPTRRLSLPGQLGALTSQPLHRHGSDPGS
Chain of CYP2C19 (P33261 whole entry): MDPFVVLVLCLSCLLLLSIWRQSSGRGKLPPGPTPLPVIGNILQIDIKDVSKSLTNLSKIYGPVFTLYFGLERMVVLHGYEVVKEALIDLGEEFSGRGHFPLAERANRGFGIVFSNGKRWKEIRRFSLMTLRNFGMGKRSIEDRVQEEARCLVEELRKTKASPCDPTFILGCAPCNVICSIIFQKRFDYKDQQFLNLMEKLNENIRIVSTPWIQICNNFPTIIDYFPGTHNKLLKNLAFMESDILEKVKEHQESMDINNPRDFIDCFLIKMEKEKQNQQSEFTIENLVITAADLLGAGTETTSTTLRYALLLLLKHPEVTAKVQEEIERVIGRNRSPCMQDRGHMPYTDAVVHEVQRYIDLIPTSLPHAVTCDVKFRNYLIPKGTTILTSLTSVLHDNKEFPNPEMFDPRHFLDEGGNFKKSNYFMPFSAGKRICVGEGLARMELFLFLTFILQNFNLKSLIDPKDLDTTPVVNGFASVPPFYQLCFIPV

Row | Compound | IC50 (hERG) | CYP-2C19 (Mephenytoin) mean percentage CYP inhibition (CYP2C19) | CYP-2D6 (Dextromethorphan) mean percentage CYP inhibition (CYP2D6) | CYP-2B6 (Bupropion) mean percentage CYP inhibition (CYP2B6) | PAMPA (pH = 7.4; Papp 10^−6 cm/s) (PAMPA (pH 7.4))
1 | CCCS(=O)(=O)Nc1cccc(Cc2c(CN3CCNCC3)c3cc(Cl)c(OC(=O)N(C)C)cc3oc2=O)c1F [Compound 167] | 1.5 µM | 67.1% | 10.1% | 19.8% | –
2 | CNS(=O)(=O)Nc1cccc(Cc2c(CN(C)C)c3ccc(OC(=O)N(C)C)cc3oc2=O)c1F [Compound 9] | 22.4 µM | 17.4% | 4.4% | −2.5% | 37 10^−6 cm/s
3 | CNS(=O)(=O)Nc1nccc(Cc2c(CN(C)C)c3ccc(OC(=O)N(C)C)cc3oc2=O)c1F [Compound 124] | 4.2 µM | 50.6% | 10.8% | 25.5% | –
